Several values for one entry are separate records, joined by “and”; a condition that tells them apart may be missing. Equal entries are not always repeated. Entries after “also recorded” stand apart in the source; their conditions may differ.
Legend:
[1] = Phase 1 and phase 2 clinical studies of fimepinostat, treatment-emergent adverse events (CTCAE v4.03); format: in vivo, human
Description: (§1) Patients received fimepinostat capsules (Pharmatek Laboratories Inc., San Diego, CA, USA) orally, within 30 minutes of a meal, in 21-day cycles until disease progression was documented or other discontinuation criteria were met. In the phase 2 protocol, change in dose and/or schedule intensity of fimepinostat were allowed as per protocol due to toxicity. Safety and tolerability were assessed by the incidence and severity of adverse events as determined by NCI Common Terminology Criteria for Adverse Events (CTCAE v4.03) in both protocols.
(§2) The intention to-treat-population included al patients from both protocols who received at least one dose of fimepinostat. The evaluable population includes all patients who received at least one dose of study drug (phase 1) or one full cycle of treatment (phase 2) and completed at least one post-baseline disease assessment. Patients were re-staged according to the Revised Response Criteria for Malignant Lymphoma.^18
All patients received fimepinostat 60 mg by mouth 5 days on/2 days off as the starting dose with the exception of 1 patient enrolled in the phase 1 protocol who received 60 mg by mouth three times weekly. Three patients enrolled in the phase 1 protocol received concurrent rituximab.
Treatment-emergent adverse events (TEAE) occurring per patient by highest grade experienced with a frequency of ≥10% are listed in Table 5. The most common TEAE of any grade were diarrhea (72%), nausea (52%) and thrombocytopenia (38%). The most common grade 3 or 4 adverse events were […], neutropenia (15%), diarrhea (12%) and anemia (12%). Three patients experienced grade 5 TEAE: respiratory failure deemed unlikely related to treatment in 1 patient, sepsis deemed not related to treatment in 1 patient and tracheal obstruction deemed not related to treatment in 1 patient. Two non-evaluable patients discontinued treatment due to TEAE: grade 2 vomiting deemed related to treatment occurring in 1 patient and grade 4 hypercalcemia deemed unlikely related to treatment in 1 patient.

[2] = system: DLBCL patients with MYC-altered disease; details: 11 evaluable DLBCL patients with MYC-altered disease, phase 1, cited from earlier work
[3] = system: R/R DLBCL/HGBL patients with MYC-altered disease; assay: Phase 1 and phase 2 clinical studies of fimepinostat, response and survival outcomes; format: in vivo, human
Text: Included subjects were enrolled in either the dose escalation and expansion portion of the phase 1 study evaluating fimepinsotat with or without rituximab (part 1) or the phase 2 study with fimepinostat monotherapy.
For the phase 1/part 1 study, key inclusion criteria were ≥18 years of age with histopathologically confirmed diagnosis of DLBCL or transformed follicular lymphoma (tFL) refractory to or relapsed after at least 2 prior regimens, Eastern Cooperative Oncology Group (ECOG) performance status 0-2, measurable disease on baseline radiographic assessment and adequate hematologic and organ function. Key exclusion criteria were receipt of systemic anti-cancer therapy within 3 weeks of study entry, ongoing treatment with chronic immunosuppressive therapy, active CNS lymphoma and gastrointestinal conditions which may interfere with absorption of fimepinostat. For the phase 2 study, key inclusion criteria were ≥18 years of age with histopathologically confirmed diagnosis of DLBCL, HGBL or tFL refractory to or relapsed after 2-4 prior lines of therapy for the treatment of de novo DLBCL and ineligible for (or failed) autologous or allogeneic stem cell transplant (SCT), Eastern Cooperative Oncology Group (ECOG) performance status 0-1, measurable disease on baseline radiographic assessment, confirmed availability of viable tissue (defined as most recent available archival tumor tissue, or fresh tumor samples) for central laboratory FISH and IHC testing prior to study dosing and adequate hematologic and organ function. Key exclusion criteria were receipt of systemic anti-cancer therapy within 2 weeks of study entry or experimental therapy within 5 terminal half-lives (t1/2) or 4 weeks prior to enrollment, known primary mediastinal, ocular, epidural, testicular or breast lymphoma and current or planned glucocorticoid therapy with the exception of doses ≤10 mg/day prednisolone or equivalent.
as §1, §2
MYC-altered disease was defined as one or more of the following results from central testing of tumor samples: expression of MYC protein in ≥40% of lymphoma cells by immunohistochemical staining (IHC), MYC rearrangement by fluorescence in situ hybridization (FISH) or >2 copies of MYC in by FISH. IHC staining of MYC (rabbit clone Y69) and BCL2 (mouse clone 124) for patients enrolled in the phase 1 study (note MYC FISH was not centrally performed in this study) were performed by Mosaic Laboratories, LLC (Lake Forest, CA, USA). IHC staining of MYC (rabbit clone Y69) and BCL2 (mouse clone 124) as well as FISH with MYC (8q24) and BCL6 (3q27) break apart probes and BCL2 (t(14;18)) fusion probe for patients enrolled in the phase 2 study were performed by NeoGenomics Laboratories, Inc (Fort Myers, FL, USA), with positive cutoff values for MYC rearrangement (>10%), MYC copy number gain (>20%), BCL2 rearrangement (≥0.5%) and BCL6 rearrangement (>10%) as defined per laboratory standard. […]

[4] = system: DLBCL xenografts with MYC alterations; details: cited from earlier work
[5] = Grades 1-2, intention to treat population (n = 58)
[6] = Total, intention to treat population (n = 58)
[7] = evaluable population (n = 43), 60 mg by mouth 5 days on/2 days off
[8] = evaluable population (n = 43), estimated
[9] = individual patients achieving partial or complete response (Subject ID 1-9)

In the case of `COc1ccc(-c2nc(N3CCOCC3)c3sc(CN(C)c4ncc(C(=O)NO)cn4)cc3n2)cn1` [fimepinostat, Fimepinostat], the “TEAE Hypokalemia, patients n (%)” value [1, 5] is reported as 7 (12), the “TEAE Hypomagnesaemia, patients n (%)” value [1, 5] is reported as 7 (12) and the “TEAE Hypophosphatemia, patients n (%)” value [1, 5] is reported as 2 (3). The “TEAE Lymphocyte count decreased, patients n (%)” value [1, 5] was 3 (5), the “TEAE Nausea, patients n (%)” value [1, 5] was 30 (52) and the “TEAE Neutropenia, patients n (%)” value [1, 5] was 2 (3). For the same compound, the “TEAE Pain in extremity, patients n (%)” value [1, 5] was 6 (10), the “TEAE Pyrexia, patients n (%)” value [1, 5] was 9 (16) and the “TEAE Thrombocytopenia, patients n (%)” value [1, 5] was 8 (14). For the same compound, the “TEAE Upper respiratory tract infection, patients n (%)” value [1, 5] was 6 (10), the “TEAE Vomiting, patients n (%)” value [1, 5] was 15 (26) and the “TEAE Weight decreased, patients n (%)” value [1, 5] was 7 (12). For the same compound, the “TEAE White blood cell count decreased, patients n (%)” value [1, 5] was 3 (5), the “Diarrhea, frequency” value ([1]; TEAE of any grade) was 72% and the “Nausea, frequency” value ([1]; TEAE of any grade) was 52%. The “Thrombocytopenia, frequency” value ([1]; TEAE of any grade) was 38%, the “TEAE Abdominal pain, patients n (%)” value [1, 6] was 9 (16) and the “TEAE Anemia, patients n (%)” value [1, 6] was 13 (22). The “TEAE Arthralgia, patients n (%)” value [1, 6] was 7 (12), the “TEAE Back pain, patients n (%)” value [1, 6] was 6 (10) and the “TEAE Constipation, patients n (%)” value [1, 6] was 14 (24). The “TEAE Cough, patients n (%)” value [1, 6] was 9 (16), the “TEAE Decreased appetite, patients n (%)” value [1, 6] was 18 (31) and the “TEAE Diarrhea, patients n (%)” value [1, 6] was 42 (72). For the same compound, the “TEAE Dizziness, patients n (%)” value [1, 6] was 8 (14), the “TEAE Dyspnea, patients n (%)” value [1, 6] was 9 (16) and the “TEAE Edema peripheral, patients n (%)” value [1, 6] was 6 (10). For the same compound, the “TEAE Fatigue, patients n (%)” value [1, 6] was 19 (33), the “TEAE Hypokalemia, patients n (%)” value [1, 6] was 13 (22) and the “TEAE Hypomagnesaemia, patients n (%)” value [1, 6] was 7 (12). For the same compound, the “TEAE Hypophosphatemia, patients n (%)” value [1, 6] was 6 (10), the “TEAE Lymphocyte count decreased, patients n (%)” value [1, 6] was 6 (10) and the “TEAE Nausea, patients n (%)” value [1, 6] was 30 (52). For the same compound, the “TEAE Neutropenia, patients n (%)” value [1, 6] was 11 (19), the “TEAE Pain in extremity, patients n (%)” value [1, 6] was 7 (12) and the “TEAE Pyrexia, patients n (%)” value [1, 6] was 10 (17). The “TEAE Thrombocytopenia, patients n (%)” value [1, 6] was 22 (38), the “TEAE Upper respiratory tract infection, patients n (%)” value [1, 6] was 6 (10) and the “TEAE Vomiting, patients n (%)” value [1, 6] was 16 (28). For the same compound, the “TEAE Weight decreased, patients n (%)” value [1, 6] was 8 (14), the “TEAE White blood cell count decreased, patients n (%)” value [1, 6] was 7 (12) and the “Non-evaluable patients who discontinued treatment due to TEAE, number” value ([1]; grade 2 vomiting (related), grade 4 hypercalcemia (unlikely related)) was “Two”. The “Anemia, frequency” value ([1]; grade 3 or 4) was 12%, the “Diarrhea, frequency” value ([1]; grade 3 or 4) was 12% and the “Most common grade 3 or 4 adverse event (event name not given), frequency” value ([1]; grade 3 or 4) was 24%. The “Neutropenia, frequency” value ([1]; grade 3 or 4) was 15%, the “Patients who experienced grade 5 TEAE, number” value ([1]; respiratory failure, sepsis, tracheal obstruction, unlikely or not related to treatment) was “Three” and the Overall response rate ([2]; central or local testing) was 64%. The “Estimated duration of response” value [2] was 13.6 month, the “Responding patients who remained on treatment for over 2 years without disease progression, number” value ([3]; 9 responding patients) was 4 and the Overall response rate ([3]; evaluable population (n = 43)) was 21%. For the same compound, the “Overall response, number of patients” value ([3]; evaluable population (n = 43)) was 9, the “Partial response, number of patients” value ([3]; evaluable population (n = 43)) was 3 and the “Progressive disease, number of patients” value ([3]; evaluable population (n = 43)) was 26. The “Complete response, % of patients” value [3, 7] was 14%, the “Complete response, number of patients” value [3, 7] was 6 and the “Alive at 6 months” value [3, 8] was 54% (95% CI 37-68%). For the same compound, the “Progression free at 6 months” value [3, 8] was 18% (95% CI 8-31%), the “DOR (duration of response)” value [3, 9] was 30.0 months and 24.4 months and 23.8 months and 1.0/1.0 months and 4.2 months and 4.1 months (2×) and 2.8 months and 40.5 months and the “Status at end of study” value [3, 9] was “Alive; also recorded: Deceased”. The “TTR (time to response)” value [3, 9] was 2.7 months and 2.8 months (3×) and 1.0/1.0 months and 1.3 months (2×) and 4.0 months and 1.2 months, the “Median duration of response” value ([3]; responding patients of evaluable population) was “Not yet reached (95% CI 1.4 months-” and the “Preclinical activity compared to HDAC or PI3K inhibitor monotherapy” value [4] was “superior preclinical activity”.
